Laboratory results from US20070154573A1 (priority 2005, published 2007).
Converted amounts (≈) assume the structure as drawn. Like-named read-outs stand apart in the source and are kept apart here. Marks after values point to notes of the source that are not given here.

Columns and labels:
PANC1 (pancreas) [1] = tested on: PANC1 (pancreas)
T24 (bladder) [2] = tested on: T24 (bladder)
PANC1 (pancreas) [3] = settings: for IC50: Homo sapiens, PANC-1, read-out: IC50 of standard agent alone
T24 (bladder) [4] = settings: for IC50: Homo sapiens, read-out: IC50 of standard agent alone
HIV-1 = settings: 50% protection of MT-4 cells, MTT-method
Text: 1-Mock-infected MT-4 cell lines are used to support the growth of the HIV-1 virus.
Compound concentrations (μg/ml) required to achieve 50% protection of MT-4 cells from the HIV-1 induced cytopathogenecity, as determined by the MTT-method.

MT-4 cells = assay: Viability of mock-infected MT-4 cells (MTT); assay type: cell-based; settings: viability of mock-infected MT-4 cells reduced by 50%
Procedure: Compound concentrations (μg/ml) required to reduce the viability of mock-infected MT-4 cells by 50% are determined by the MTT-method.

[5] = target: reverse-transcriptase enzyme; assay: Efficacy against reverse-transcriptase (RT); assay type: biochemical; settings: in vitro
Procedure: 5.a Efficacy Against Reverse-Transcriptase (RT) Using Phosphonoformate as Inhibitors of RT • The inhibitory effect of the cold extract according to the present invention against the reverse-transcriptase enzyme is also studied using three different concentrations (0.1, 1 and 10 μg/ml) in vitro and compared with the phosphonoformate (PFA) as inhibitors of RT.

SMILES: CCC1=C[C@@H]2CN(C1)Cc1c([nH]c3ccccc13)[C@@](C(=O)OC)(c1cc3c(cc1OC)N(C)[C@H]1[C@@](O)(C(=O)OC)[C@H](OC(C)=O)[C@]4(CC)C=CCN5CC[C@]31[C@@H]54)C2 [Navelbine, navelbine]
- IC50 (HCT116 (colon)): 60 ng/mL (≈ 0.077 µM)
- IC50 (H460 (lung)): 0.057 µg/mL (≈ 0.0732 µM)
- IC50 (PANC1 (pancreas) [1]): 0.119 µg/mL (≈ 0.153 µM)
- IC50 (T24 (bladder) [2]): 0.144 µg/mL (≈ 0.185 µM)

SMILES: CC(=O)O[C@H]1C(=O)[C@@]2(C)[C@H]([C@H](OC(=O)c3ccccc3)[C@]3(O)C[C@H](OC(=O)[C@H](O)[C@@H](NC(=O)c4ccccc4)c4ccccc4)C(C)=C1C3(C)C)[C@]1(OC(C)=O)CO[C@@H]1C[C@@H]2O [TAXOL, taxol]
- IC50 (H460 (lung)): 0.0019 µg/mL (≈ 0.00223 µM)
- IC50 (PANC1 (pancreas) [3]): 0.0019 µg/mL (≈ 0.00223 µM)
- IC50 (T24 (bladder) [4]): 0.01 µg/mL (≈ 0.0117 µM)

SMILES: CC(=O)O[C@@]12CO[C@@H]1C[C@H](O)[C@@]1(C)C(=O)[C@H](O)C3=C(C)[C@@H](OC(=O)[C@H](O)[C@@H](NC(=O)OC(C)(C)C)c4ccccc4)C[C@@](O)([C@@H](OC(=O)c4ccccc4)[C@H]21)C3(C)C [Taxotere, taxotere]
- IC50 (H460 (lung)): 0.059 µg/mL (≈ 0.073 µM)
- IC50 (T24 (bladder) [2]): 0.163 µg/mL (≈ 0.202 µM)

SMILES: N.N.[Cl][Pt][Cl] [Cis-Platin, cisplatin]
- IC50 (HCT116 (colon)): > 30000 ng/mL
- IC50 of standard agent alone (PANC1 (pancreas) [3]; PANC1, no Breastin, Exp. GF654): 5.48 µg/mL
- IC50 of standard agent alone (T24 (bladder) [4]; T24, no Breastin, Exp. GF649): >30 µg/mL

SMILES: O=c1[nH]cc(F)c(=O)[nH]1 [5-FU, 5-fluoro-uracil]
- IC50 (H460 (lung)): 0.157 µg/mL (≈ 1.21 µM)
- IC50 (PANC1 (pancreas) [3]): 0.247 µg/mL (≈ 1.9 µM)
- IC50 (T24 (bladder) [4]): 0.429 µg/mL (≈ 3.3 µM)

SMILES: COc1cccc2c1C(=O)c1c(O)c3c(c(O)c1C2=O)C[C@@](O)(C(=O)CO)C[C@@H]3O[C@H]1C[C@H](N)[C@H](O)[C@H](C)O1 [ADR, adriamycin]
- IC50 (HCT116 (colon)): 6 ng/mL (≈ 0.011 µM)
- IC50 (H460 (lung)): 0.004 µg/mL (≈ 0.00736 µM)
- IC50 (PANC1 (pancreas) [3]): 0.022 µg/mL (≈ 0.0405 µM)
- IC50 (T24 (bladder) [4]): 0.058 µg/mL (≈ 0.107 µM)

SMILES: Cc1cn([C@H]2C[C@H](N=[N+]=[N-])[C@@H](CO)O2)c(=O)[nH]c1=O [AZT]
- EC50 (HIV-1) (HIV-1): 0.01 µg/mL (≈ 0.0374 µM)
- IC50 (MT-4) (MT-4 cells): >10 µg/mL

SMILES: CO[C@@]12[C@H](COC(N)=O)C3=C(C(=O)C(C)=C(N)C3=O)N1C[C@@H]1N[C@@H]12 [Mitomycin, mitomycin-C]
- IC50 (H460 (lung)): 0.009 µg/mL (≈ 0.0269 µM)
- IC50 (T24 (bladder) [2]): 0.056 µg/mL (≈ 0.167 µM)

SMILES: O=C(O)P(=O)(O)O [PFA, phosphonoformate]
- IC50, reverse-transcriptase enzyme [5]: 6 to 20 µg/mL

SMILES: CC[C@@]1(O)C(=O)OCc2c1cc1n(c2=O)Cc2cc3c(CN(C)C)c(O)ccc3nc2-1 [Topotecan, topotecan]
- IC50 (HCT116 (colon)): 6.6 ng/mL (≈ 0.0157 µM)
- IC50 (H460 (lung)): 0.0079 µg/mL (≈ 0.0187 µM)
- IC50 (T24 (bladder) [2]): 0.0032 µg/mL (≈ 0.00759 µM)

SMILES: Nc1nc2[nH]cc(CCc3ccc(C(=O)N[C@@H](CCC(=O)O)C(=O)O)cc3)c2c(=O)[nH]1 [Alimta, alimta]
- IC50 (H460 (lung)): 0.018 µg/mL (≈ 0.0421 µM)
- standard agent alone, based on IC70 values (PANC1 (pancreas) [3]; PANC1, no Breastin, Exp. GF683, IC70): <100^2) μg/ml

SMILES: O=P1(N(CCCl)CCCl)NCCCO1 (stereo not shown) [CYACT, cyclophosphamide]
- IC50 (PANC1 (pancreas) [1]): 0.193 µg/mL (≈ 0.739 µM)
- IC50 (T24 (bladder) [2]): 0.32 µg/mL (≈ 1.23 µM)
